One experiment concerns the target N-type calcium channel (Homo sapiens, UniProt Q00975). Kind of experiment: N-Channel FLIPR assay (IMR32 cells, 80 mM K+ evoked calcium flux). Particulars: unit inferred. The experiment is classed as cell-based. (Calcium flux is commonly read through the fluorescence of an indicator in the cells.)
The subject of another experiment is NK-1 receptor. Particulars: phenylbenzoquinone-induced writhing and formalin test; Garret et al; cited from earlier work. (Writhing tests count abdominal constrictions after an irritant is injected.)

Sequence of N-type calcium channel (Q00975 whole entry): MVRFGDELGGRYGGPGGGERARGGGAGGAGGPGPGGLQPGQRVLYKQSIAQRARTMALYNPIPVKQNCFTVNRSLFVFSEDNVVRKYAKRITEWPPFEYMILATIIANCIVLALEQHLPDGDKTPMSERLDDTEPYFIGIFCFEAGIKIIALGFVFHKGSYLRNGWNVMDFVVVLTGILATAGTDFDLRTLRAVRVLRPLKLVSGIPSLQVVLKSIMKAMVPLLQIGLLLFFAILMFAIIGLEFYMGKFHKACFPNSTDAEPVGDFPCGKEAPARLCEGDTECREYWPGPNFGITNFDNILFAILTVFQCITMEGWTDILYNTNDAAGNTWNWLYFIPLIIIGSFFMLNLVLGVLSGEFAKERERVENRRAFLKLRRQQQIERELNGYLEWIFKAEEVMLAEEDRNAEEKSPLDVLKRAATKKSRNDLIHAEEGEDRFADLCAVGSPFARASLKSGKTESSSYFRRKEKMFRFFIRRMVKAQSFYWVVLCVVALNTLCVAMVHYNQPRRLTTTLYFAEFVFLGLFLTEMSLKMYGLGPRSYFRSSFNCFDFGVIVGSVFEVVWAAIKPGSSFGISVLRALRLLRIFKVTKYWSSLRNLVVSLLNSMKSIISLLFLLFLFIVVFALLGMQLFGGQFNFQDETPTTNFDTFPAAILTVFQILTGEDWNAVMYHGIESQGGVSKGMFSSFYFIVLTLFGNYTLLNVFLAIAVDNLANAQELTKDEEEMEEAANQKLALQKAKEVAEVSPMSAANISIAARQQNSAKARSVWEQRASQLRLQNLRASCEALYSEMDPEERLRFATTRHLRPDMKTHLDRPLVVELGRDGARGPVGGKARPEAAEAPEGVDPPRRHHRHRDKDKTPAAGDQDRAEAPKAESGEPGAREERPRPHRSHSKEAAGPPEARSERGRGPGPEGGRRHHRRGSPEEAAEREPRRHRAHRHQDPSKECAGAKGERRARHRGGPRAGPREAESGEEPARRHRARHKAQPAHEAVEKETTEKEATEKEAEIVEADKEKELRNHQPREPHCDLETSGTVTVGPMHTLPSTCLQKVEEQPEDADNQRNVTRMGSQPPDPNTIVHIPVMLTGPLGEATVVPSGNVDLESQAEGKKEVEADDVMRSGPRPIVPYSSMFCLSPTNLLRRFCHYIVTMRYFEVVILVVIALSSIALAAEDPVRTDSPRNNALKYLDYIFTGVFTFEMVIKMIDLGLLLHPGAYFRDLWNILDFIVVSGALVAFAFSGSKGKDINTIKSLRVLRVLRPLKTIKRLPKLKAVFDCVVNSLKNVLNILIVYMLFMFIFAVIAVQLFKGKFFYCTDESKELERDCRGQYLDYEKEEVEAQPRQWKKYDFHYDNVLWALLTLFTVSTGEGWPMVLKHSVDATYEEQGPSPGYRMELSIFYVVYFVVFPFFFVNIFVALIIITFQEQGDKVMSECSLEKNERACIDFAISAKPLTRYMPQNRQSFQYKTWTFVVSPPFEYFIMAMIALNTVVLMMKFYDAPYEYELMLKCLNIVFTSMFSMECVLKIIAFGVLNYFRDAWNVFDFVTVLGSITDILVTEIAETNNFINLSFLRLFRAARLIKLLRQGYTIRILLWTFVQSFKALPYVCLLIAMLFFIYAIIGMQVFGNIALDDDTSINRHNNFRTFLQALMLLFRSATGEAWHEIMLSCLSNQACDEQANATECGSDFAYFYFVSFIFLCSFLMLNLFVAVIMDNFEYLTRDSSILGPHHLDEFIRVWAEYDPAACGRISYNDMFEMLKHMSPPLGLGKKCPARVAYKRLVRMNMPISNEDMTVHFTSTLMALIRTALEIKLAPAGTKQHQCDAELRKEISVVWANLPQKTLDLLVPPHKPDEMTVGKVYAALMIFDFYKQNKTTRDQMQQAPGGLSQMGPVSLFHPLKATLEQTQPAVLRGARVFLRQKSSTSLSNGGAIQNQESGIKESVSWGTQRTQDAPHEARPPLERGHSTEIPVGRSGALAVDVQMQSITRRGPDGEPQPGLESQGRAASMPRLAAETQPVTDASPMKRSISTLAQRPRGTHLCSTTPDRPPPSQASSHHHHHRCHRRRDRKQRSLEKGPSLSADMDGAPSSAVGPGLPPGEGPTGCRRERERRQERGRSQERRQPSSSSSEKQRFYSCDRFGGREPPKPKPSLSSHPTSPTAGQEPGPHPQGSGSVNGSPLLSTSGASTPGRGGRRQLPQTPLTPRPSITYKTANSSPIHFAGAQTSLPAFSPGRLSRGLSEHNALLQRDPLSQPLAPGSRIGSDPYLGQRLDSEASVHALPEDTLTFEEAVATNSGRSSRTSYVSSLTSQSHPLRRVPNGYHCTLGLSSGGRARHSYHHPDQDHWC
Sequence of N-type calcium channel (P54289 25-1103 partner): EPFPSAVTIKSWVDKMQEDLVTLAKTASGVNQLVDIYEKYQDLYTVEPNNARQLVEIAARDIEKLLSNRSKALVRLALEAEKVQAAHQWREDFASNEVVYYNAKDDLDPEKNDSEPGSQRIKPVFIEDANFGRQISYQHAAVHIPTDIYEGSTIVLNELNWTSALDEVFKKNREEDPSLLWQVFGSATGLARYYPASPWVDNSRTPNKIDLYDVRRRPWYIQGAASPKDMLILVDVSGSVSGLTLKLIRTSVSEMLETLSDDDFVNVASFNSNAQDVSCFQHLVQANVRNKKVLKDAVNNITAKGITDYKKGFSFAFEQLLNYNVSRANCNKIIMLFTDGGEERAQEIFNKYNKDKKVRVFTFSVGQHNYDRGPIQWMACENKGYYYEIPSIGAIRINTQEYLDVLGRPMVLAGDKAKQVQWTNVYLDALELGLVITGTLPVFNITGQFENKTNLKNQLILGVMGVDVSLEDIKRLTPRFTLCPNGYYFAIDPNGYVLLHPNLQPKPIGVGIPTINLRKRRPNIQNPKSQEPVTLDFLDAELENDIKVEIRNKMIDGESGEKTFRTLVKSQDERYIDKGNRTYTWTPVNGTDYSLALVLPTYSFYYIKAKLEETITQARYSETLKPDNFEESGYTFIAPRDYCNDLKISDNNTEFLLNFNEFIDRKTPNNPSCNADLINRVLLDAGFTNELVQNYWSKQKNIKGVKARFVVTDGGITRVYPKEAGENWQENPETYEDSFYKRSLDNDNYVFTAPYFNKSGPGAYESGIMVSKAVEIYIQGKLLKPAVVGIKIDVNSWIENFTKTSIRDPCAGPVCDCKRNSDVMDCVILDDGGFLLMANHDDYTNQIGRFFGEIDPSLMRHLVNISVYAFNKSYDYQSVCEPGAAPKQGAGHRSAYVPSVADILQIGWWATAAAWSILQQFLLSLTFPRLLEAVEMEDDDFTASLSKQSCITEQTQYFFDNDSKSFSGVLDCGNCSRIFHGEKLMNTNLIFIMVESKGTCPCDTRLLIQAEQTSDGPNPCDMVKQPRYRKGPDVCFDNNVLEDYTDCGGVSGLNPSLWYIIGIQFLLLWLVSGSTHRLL
Sequence of N-type calcium channel (P54284 whole entry partner): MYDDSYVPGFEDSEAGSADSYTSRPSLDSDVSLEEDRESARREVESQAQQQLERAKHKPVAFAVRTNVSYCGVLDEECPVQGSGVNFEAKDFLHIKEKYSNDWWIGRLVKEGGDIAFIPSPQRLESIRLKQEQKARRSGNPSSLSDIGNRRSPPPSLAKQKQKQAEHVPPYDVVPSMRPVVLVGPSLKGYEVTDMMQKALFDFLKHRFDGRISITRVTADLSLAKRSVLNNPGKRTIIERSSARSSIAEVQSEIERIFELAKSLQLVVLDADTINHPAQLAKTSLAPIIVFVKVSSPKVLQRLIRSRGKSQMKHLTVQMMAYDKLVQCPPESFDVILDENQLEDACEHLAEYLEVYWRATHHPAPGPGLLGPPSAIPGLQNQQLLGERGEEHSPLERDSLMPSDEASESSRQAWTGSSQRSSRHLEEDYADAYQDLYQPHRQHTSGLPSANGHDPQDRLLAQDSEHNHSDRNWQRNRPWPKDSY

With `CNc1cc(-c2cccc(F)c2)nc2ccc(-c3ccccc3OC)cc12` [Example 16, 2-(3-fluorophenyl)-6-(2-methoxyphenyl)-4-methylaminoquinoline], the IC50 (as a rule, the concentration needed to halve the response being measured) on N-type calcium channel came to 5.78 µM.

Turning to `CNc1cc(-c2cccc(F)c2)nc2ccc(-c3ccccc3C)cc12` [Example 14, 2-(3-fluorophenyl)-6-(2-methylphenyl)-4-methylaminoquinoline], the IC50 on N-type calcium channel amounted to 8.82 µM.

As to `COc1ccccc1CC(=N)N1C[C@@H]2C(=O)CCC(c3ccccc3)(c3ccccc3)[C@@H]2C1` [RP 67,580], the analgesia entry in the experiment with NK-1 receptor is “produced analgesia with potency comparable to that of morphine”.

Take `CNc1cc(-c2cccc(F)c2)nc2ccc(-c3ccccc3Cl)cc12` [Example 12, 2-(3-fluorophenyl)-6-(2-chlorophenyl)-4-methylaminoquinoline]: the IC50 at N-type calcium channel was determined as 10.5 µM.

For the molecule `CNc1cc(-c2cccc(F)c2)nc2ccc(-c3ccccc3C=O)cc12` [Example 15, 2-[2-(3-fluorophenyl)-4-(methylamino)-6-quinolinyl]-benzaldehyde], on N-type calcium channel, the 50% inhibitory concentration (IC50) turned out to be 5.38 µM.

Regarding `CNc1cc(-c2cccc(F)c2)nc2ccc(-c3ccccc3)cc12` [Example 13, 2-(3-fluorophenyl)-6-phenyl-4-methylaminoquinoline], the IC50 at N-type calcium channel turned out to be 8.6 µM.
